Assay results taken from BindingDB's records for patent US20240158355 (Baylor College of Medicine, 2024).

Assays:
[1] = target: T1, Bromodomain testis-specific protein [287-359] (Homo sapiens, UniProt Q58F21); assay: AlphaScreen Assay
T1 construct: 287-359
Excerpt: (§1) No details are given.

[2] = target: T2, Bromodomain testis-specific protein [44-116] (UniProt Q58F21); assay: AlphaScreen Assay
T2 construct: 44-116
Excerpt: as §1

Cc1cc(N)ccc1-c1nn(C)c2ccc(-c3cncnc3)cc12 [US20240158355, Compound 76]
IC50 [1]: 9.48 µM | IC50 [2]: 5.44 µM
